Laboratory results published in ChEMBL document CHEMBL4028859, “Inhibition of Calcium Dependent Protein Kinase 1 (CDPK1) by Pyrazolopyrimidine Analogs Decreases Establishment and Reoccurrence of Central Nervous System Disease by Toxoplasma gondii” (J Med Chem, 2017).

How the values were obtained:
[1] = (§1) AUC (infinity) in Swiss albino mouse at 3 mg/kg, iv administered as single dose by LC-MS/MS analysis; format: ADME, organism-based; parameters: dose 3 mg/kg, time infinity, route intravenous; settings: Swiss albino, in vivo
Mus musculus [2] = assay: Oral bioavailability in Swiss albino mouse at 10 mg/kg administered as single dose by LC-MS/MS analysis; format: ADME, organism-based; settings: in vivo
[3] = (§2) AUClast in Swiss albino mouse at 3 mg/kg, iv administered as single dose by LC-MS/MS analysis; format: ADME, organism-based; parameters: dose 3 mg/kg, time 0 - last, route intravenous; settings: Swiss albino, in vivo
[4] = (§3) Tmax in Swiss albino mouse at 10 mg/kg, po administered as single dose by LC-MS/MS analysis; format: ADME, organism-based; settings: Swiss albino, in vivo
[5] = Apparent permeability from apical to basolateral side in human Caco2 cells at 5 uM by LC-MS/MS analysis; format: ADME, cell-based; settings: caco-2, 5 µM
[6] = Initial concentration in Swiss albino mouse at 3 mg/kg, iv administered as single dose by LC-MS/MS analysis; format: ADME, organism-based; settings: in vivo
[7] = (§4) Cmax in Swiss albino mouse at 10 mg/kg, po administered as single dose by LC-MS/MS analysis; format: ADME, organism-based; parameters: dose 10 mg/kg, route oral; settings: Swiss albino, in vivo
[8] = (§5) Volume of distribution at steady state in Swiss albino mouse at 3 mg/kg, iv administered as single dose by LC-MS/MS analysis; format: ADME, organism-based; settings: Swiss albino, in vivo, read-out: Vdss
[9] = (§6) AUClast in Swiss albino mouse at 10 mg/kg, po administered as single dose by LC-MS/MS analysis; format: ADME, organism-based; parameters: dose 10 mg/kg, route oral, time 0 - last; settings: Swiss albino, in vivo
[10] = (§7) AUC (infinity) in Swiss albino mouse at 10 mg/kg, po administered as single dose by LC-MS/MS analysis; format: ADME, organism-based; parameters: dose 10 mg/kg, time infinity, route oral; settings: Swiss albino, in vivo
[11] = Apparent permeability from basolateral to apical side in human Caco2 cells at 5 uM by LC-MS/MS analysis; format: ADME, cell-based; settings: caco-2, 5 µM
Mus musculus [12] = assay: as §2; format: ADME, organism-based; parameters: dose 3 mg/kg, time 0 - last, route intravenous; settings: in vivo
Mus musculus [13] = assay: as §3; format: ADME, organism-based; settings: in vivo
[14] = Dissociation constant, pKa of compound; format: physicochemical
Mus musculus [15] = assay: as §4; format: ADME, organism-based; parameters: dose 10 mg/kg, route oral; settings: in vivo
Mus musculus [16] = assay: as §5; format: ADME, organism-based; settings: in vivo
Mus musculus [17] = assay: as §6; format: ADME, organism-based; parameters: dose 10 mg/kg, route oral, time 0 - last; settings: in vivo
Mus musculus [18] = assay: as §7; format: ADME, organism-based; parameters: dose 10 mg/kg, time infinity, route oral; settings: in vivo
[19] = Ratio of total drug level in CNS to serum in Swiss albino mouse at 10 to 50 mg/kg, po administered as single dose upto 24 hrs by LC-MS/MS analysis; format: ADME, organism-based
[20] = Ratio of total drug level in brain to plasma in Swiss albino mouse at 10 to 50 mg/kg, po administered as single dose upto 24 hrs by LC-MS/MS analysis; format: ADME, organism-based; settings: read-out: BPR
Mus musculus [21] = assay: as §1; format: ADME, organism-based; parameters: dose 3 mg/kg, time infinity, route intravenous; settings: in vivo

Structure (SMILES)	Papp [5] [×10⁻⁶ cm/s]	C0 [6] [ng/mL]	Papp [11] [×10⁻⁶ cm/s]	AUClast (Mus musculus [12]) [ng·h/mL]	Tmax (Mus musculus [13]) [min]	pKa [14]	Cmax (Mus musculus [15]) [ng/mL]	Vdss (Mus musculus [16]) [L/kg]	AUClast (Mus musculus [17]) [ng·h/mL]	AUC (Mus musculus [18]) [ng·h/mL]	also measured
CC(C)(C)n1nc(Cc2cccc(Cl)c2)c2c(N)ncnc21	42.9	6890	28.7	–	–	–	–	–	–	–	AUC(0-inf) [1]: 1080 ng·h/mL; F (Mus musculus [2]): 26%; AUC(0-t) [3]: 1080 ng·h/mL; Tmax [4]: 15 min; Cmax [7]: 585 ng/mL; Vd [8]: 1.09 L/kg; AUC(0-t) [9]: 919 ng·h/mL; AUC(0-inf) [10]: 931 ng·h/mL
Nc1ncnc2c1c(Oc1cccc(Cl)c1)nn2CC1CCNCC1(F)F (configuration not stated)	22.8	1210	21.2	975.9	15	7.1	1048.8	3.68	3058.44	3547.95	Kp at 24 h [19]: 5.6; Kp at 24 h [20]: 1.3
CC(C)(C)n1nc(Oc2cccc(Cl)c2)c2c(N)ncnc21	34.8	5470	30.6	–	15	–	1136.36	1.1	1172.75	1279.2	–
Nc1ncnc2c1c(Sc1cccc(Cl)c1)nn2CC1CCNCC1(F)F (configuration not stated)	27.1	–	25.3	–	–	7.1	–	–	–	–	–
Nc1ncnc2c1c(Sc1cccc(Cl)c1)nn2CC1CCNCC1	2.76	–	25.6	–	–	10.4	–	–	–	–	–
Nc1ncnc2c1c(Oc1cccc(Cl)c1)nn2CC1CCNCC1	1.07	536	9.58	449.57	120	10.4	182.56	19.59	757.85	891.24	–
Cc1cccc(Oc2nn(C(C)(C)C)c3ncnc(N)c23)c1	15	2740	14.6	619.33	15	–	76.69	2.32	85.47	91.42	AUC (Mus musculus [21]): 625.04 ng·h/mL
